Experimental data: the SangsterLogP compilation

assay: method code SF, from DOI: 10.1021/js960111p, PMID: 9002468; conditions: not given

| logP | SMILES |
| --- | --- |
| 2.08 | COc1ccc2[nH]ccc2c1 |
| 2.55 | Cn1ccc2ccccc21 |
| 2.93 | Clc1ccc2[nH]ccc2c1 |
| 3.02 | Cc1ccc2[nH]c(C)cc2c1 |
| 1.29 | Oc1ccc2[nH]ccc2c1 |
| 2.67 | Cc1ccc2[nH]ccc2c1 |
| 3 | c1ccc2c3c([nH]c2c1)CCCC3 |

same assay, conditions: pH 12.0

| SMILES | logD |
| --- | --- |
| NCCc1c[nH]c2ccccc12 | 1.35 |
| CC1NCCc2c1[nH]c1ccc([N+](=O)[O-])cc21 (stereo not drawn) | 2.07 |
| COc1ccc2c3c([nH]c2c1)C(C)NCC3 (stereo not drawn) | 1.37 |
| Cc1nccc2c1[nH]c1ccccc12 | 2.89 |
| c1ccc2c3c([nH]c2c1)CNCC3 | 1.98 |
| CC1NCCc2c1[nH]c1ccc(Cl)cc21 (stereo not drawn) | 2.3 |
| Cc1nccc2c3ccccc3n(C)c12 | 3.01 |
| Cn1c2ccccc2c2ccccc21 | 3.99 |
| COc1ccc2[nH]c3c(c2c1)CCNC3C (stereo not drawn) | 1.15 |
| CC1NCCc2c1[nH]c1ccccc21 (stereo not drawn) | 2.06 |
| c1ccc2c(c1)[nH]c1cnccc12 | 2.65 |
